Source: patent publication US20250353859A1, “COMPOUNDS AS CCR6 INHIBITORS” (Hoffmann-La Roche Inc., priority 2023, published 2025)
pIC50: −log10 of the molar value.

Tests used:
human CCR6 [1] = molecular target: T1, human CCR6 (Homo sapiens, UniProt P51684); assay: CHO-K1 CCR6 chemotaxis assay towards CCL20; format: cell-based; settings: CHO-K1 cells overexpressing human CCR6; 100 ng/ml CCL20, 4 h; relative Log IC50
T1 sequence (P51684 1-374): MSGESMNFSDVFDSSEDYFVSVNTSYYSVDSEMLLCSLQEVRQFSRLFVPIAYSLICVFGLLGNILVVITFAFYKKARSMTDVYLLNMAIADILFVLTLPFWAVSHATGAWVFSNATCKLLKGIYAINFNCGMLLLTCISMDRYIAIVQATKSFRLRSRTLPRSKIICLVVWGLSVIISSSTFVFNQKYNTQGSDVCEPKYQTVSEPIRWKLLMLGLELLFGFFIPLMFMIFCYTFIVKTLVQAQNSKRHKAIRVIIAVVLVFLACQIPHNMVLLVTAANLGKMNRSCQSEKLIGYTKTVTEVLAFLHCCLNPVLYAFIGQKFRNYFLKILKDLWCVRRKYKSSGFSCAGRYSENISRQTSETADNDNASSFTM
Description: Cells overexpressing human CCR6 were used in the chemotaxis assay (DiscoverX, cAMP Hunter™ CHO-K1 CCR6 Gi Cell Line). Growth medium of these cells consisted of DMEM/F12, non-essential Amino acids (1×NEAA, Gibco 11140050), 10% FBS and 1× pen/strep (Gibco 15140). For the chemotaxis assay, Corning Transwell plates were used with a pore size of 8 m (Corning 351164). Cells were harvested using trypsin and diluted to 4*10^6 cells/ml in chemotaxis medium (DMEM, 0.25% BSA, pen/strep). Compounds were four-fold serially diluted in DMSO. Further dilutions were made in chemotaxis medium. Cells were incubated with test compounds for 30 min at 37° C. prior to initiation of the assay (2*10^6 cells/ml). Final DMSO concentration in the assay was 0.2%. Wells of the Transwell plates were filled with 200 μl chemotaxis medium containing 100 ng/ml CCL20 (R&D systems 360-MP). 50 μl of the cell/compound suspension was added to the inserts of the Transwell plates (100,000 cells/insert). The Transwell plates were placed in an incubator at 37° C., 5% CO2 for 4 h. After 4 h, the number of migrated cells was quantified using CellTiter Glo (Promega). Percentage inhibition values were calculated based on the low and high signal obtained with 0.2% DMSO in chemotaxis medium without and with CCL20, respectively. The relative Log IC50 was determined with GraphPad Prism 9 using a four-parameter dose-response model.

human CCR6 [2] = molecular target: T1, human CCR6; assay: Human CCR6-CRE reporter assay; format: cell-based; parameters: The second construct contained the open reading frame of human CCR6 in the pUNO1 backbone; host or cells: 293FT cells (transient transfection with TransIT-293); settings: for IC50: 293FT cells transfected with human CCR6 and CRE-luciferase, Forskolin + CCL20, 5 h, relative Log IC50, read-out: CCR6-CRE reporter (converted); for pIC50: R1 = CF3, read-out: Activity in human CCR6-CRE reporter assay
Procedure: 293FT cells were transfected with 2 constructs using TransIT-293 (Mirus). The first construct (pGL4.29, Promega) expressed the luciferase reporter gene luc2P in response to the binding of cAMP-induced CREB to the CREelement in its promoter. The second construct contained the open reading frame of human CCR6 in the pUNO1 backbone under the control of an enhanced CMV promoter(InVivoGen).48 h after transfection, cells were harvested and diluted to 750,000 cells/ml in culture medium (DMEM, 10% FBS, 1× pen/strep(Gibco 15140)). Compounds were 2.5-fold serially diluted in DMSO. Further dilutions were made in assay medium (DMEM, 10% FBS, 1× pen/strep, 6 μM Forskolin, 6 nM CCL20). 4 μl of the compound solution was added to a white MW384 plate, followed by […] of the cell suspension. Final DMSO concentration in the assay was 0.1%. The MW384 plate was placed in an incubator at 37° C., 5% CO2 for 5 h. Luciferase activity was determined by addition of 24 μl of a 2.5× diluted BriteLite luciferase solution(Perkin Elmer), followed by luminescence measurement using a VICTOR Plate reader (Perkin Elmer). […] The relative Log IC50 was determined with GraphPad Prism 9 using a four-parameter dose-response model.

With `N#Cc1n[nH]c2ccc(-c3ccc(S(=O)(=O)N4CCC(Nc5ccc(OC(F)(F)F)cc5)CC4)cc3)cc12` [Example 14, 5-{4-[(4-{[4-(trifluoromethoxy)phenyl]Amino}piperidin-1-yl)sulfonyl]phenyl}-1H-indazole-3-carbonitrile] as the compound, how does the pIC50 (human CCR6 [1]) read?
Its pIC50 is 7.70.

What about the IC50 (human CCR6 [2]) of the same compound?
The IC50 was 63.1 nM.

With `N#Cc1c[nH]c2ccc(-c3ccc(S(=O)(=O)N4CCC(Nc5ccc(OC(F)(F)F)cn5)CC4)cc3)cc12` [Example 15, 5-{4-[(4-{[5-(trifluoromethoxy)pyridin-2-yl]Amino}piperidin-1-yl)sulfonyl]phenyl}-1H-indole-3-carbonitrile] as the compound, how does the pIC50 (human CCR6 [1]) read?
The pIC50 was 8.00.

How did the pIC50 (human CCR6 [1]) turn out when `O=c1[nH]nc2ccc(-c3ccc(S(=O)(=O)N4CCC(Nc5ccc(OC(F)(F)F)cc5)CC4)cc3)cn12` [Example 23, 6-{4-[(4-{[4-(trifluoromethoxy)phenyl]Amino}piperidin-1-yl)sulfonyl]phenyl}-2H,3H-[1,2,4]triazolo[4,3-a]pyridin-3-one] was run?
The pIC50 was 7.40.

`O=c1[nH]nc2ccc(-c3ccc(S(=O)(=O)N4CCC(Nc5ccc(OC(F)(F)F)cn5)CC4)cc3)cn12` [Example 24, 6-{4-[(4-{[5-(trifluoromethoxy)pyridin-2-yl]Amino}piperidin-1-yl)sulfonyl]phenyl}-2H,3H-[1,2,4]triazolo[4,3-a]pyridin-3-one] was tested. Which pIC50 (human CCR6 [1]) did it give?
Its pIC50 is 7.50.

What about the IC50 (human CCR6 [2]) of the same compound?
Its IC50 is 79.4 nM.

`N#Cc1c[nH]c2ccc(-c3ccc(S(=O)(=O)N4CCC(Nc5ccc(OC(F)F)cc5)CC4)cc3)cc12` [Example 29, 5-{4-[(4-{[4-(difluoromethoxy)phenyl]Amino}piperidin-1-yl)sulfonyl]phenyl}-1H-indole-3-carbonitrile] was tested. Which pIC50 (human CCR6 [1]) did it give?
The pIC50 was 6.90.

With `Cc1cc(-c2ccc(S(=O)(=O)N3CCC(Nc4ccc(SC(F)(F)F)cc4)CC3)cc2)cn2c(C(C)C)cnc12` [Example 33, 1-{4-[8-methyl-3-(propan-2-yl)imidazo[1,2-a]pyridin-6-yl]benzenesulfonyl}-N-{4-[(trifluoromethyl)sulfanyl]phenyl}piperidin-4-amine] as the compound, how does the pIC50 (human CCR6 [1]) read?
The pIC50 was 7.70.

What about the IC50 (human CCR6 [2]) of the same compound?
The IC50 was 100 nM.

`Cc1cnc2ccc(-c3ccc(S(=O)(=O)[C@H]4CC[C@H](Nc5ccc(OC(F)(F)F)cc5)CC4)cc3)cn12` [Example 41, N-[trans-4-(4-{3-methylimidazo[1,2-a]pyridin-6-yl}benzenesulfonyl)cyclohexyl]-4-(trifluoromethoxy)aniline] was tested. Which pIC50 (human CCR6 [1]) did it give?
Its pIC50 is 7.20.

And the IC50 (human CCR6 [2])?
The IC50 was 158 nM.

With `Cc1cnc2ccc(-c3ccc(S(=O)(=O)[C@H]4CC[C@H](Nc5ccc(OC(F)(F)F)cn5)CC4)cc3)cn12` [Example 42, N-[trans-4-(4-{3-methylimidazo[1,2-a]pyridin-6-yl}benzenesulfonyl)cyclohexyl]-5-(trifluoromethoxy)pyridin-2-amine] as the compound, how does the pIC50 (human CCR6 [1]) read?
The pIC50 was 7.10.

What about the IC50 (human CCR6 [2]) of the same compound?
The IC50 was 158 nM.

Which IC50 (human CCR6 [2]) does the source give for `N=S(=O)(c1ccc(-c2ccc3nccn3c2)cc1)[C@H]1CC[C@H](Nc2ccc(SC(F)(F)F)cc2)CC1` (stereo partly drawn) [Example 52, (4-{imidazo[1,2-a]pyridin-6-yl}phenyl)[trans-4-({4-[(trifluoromethyl)sulfanyl]phenyl}Amino)cyclohexyl](imino)-λ^6-sulfanone] here?
Its IC50 is 158 nM.

How did the IC50 (human CCR6 [2]) turn out when `N=S(=O)(c1ccc(-c2ccc3n[nH]c(=O)n3c2)cc1)[C@H]1CC[C@H](Nc2ccc(SC(F)(F)F)cc2)CC1` (stereo partly drawn) [Example 53, 6-(4-{[trans-4-({4-[(trifluoromethyl)sulfanyl]phenyl}Amino)cyclohexyl]sulfonimidoyl}phenyl)-2H,3H-[1,2,4]triazolo[4,3-a]pyridin-3-one] was run?
Its IC50 is 316 nM.

`N=S(=O)(c1ccc(-c2ccc3nccn3c2)cc1)[C@H]1CC[C@H](Nc2ccc(OC(F)(F)F)cn2)CC1` (stereo partly drawn) [Example 54, (4-{imidazo[1,2-a]pyridin-6-yl}phenyl)[trans-4-{[5-(trifluoromethoxy)pyridin-2-yl]Amino}cyclohexyl](imino)-λ^6-sulfanone] was tested. Which IC50 (human CCR6 [2]) did it give?
The IC50 was 631 nM.

How did the IC50 (human CCR6 [2]) turn out when `CC(C)c1nnc2ccc(-c3ccc(S(=O)(=O)N4CCC(Nc5ccc(OC(F)(F)F)cn5)CC4)cc3)cn12` [Example 56, N-(1-{4-[3-(propan-2-yl)-[1,2,4]triazolo[4,3-a]pyridin-6-yl]benzenesulfonyl}piperidin-4-yl)-5-(trifluoromethoxy)pyridin-2-amine] was run?
The IC50 was 31.6 nM.

`NC(=O)c1cc(-c2ccc(S(=O)(=O)N3CCC(Nc4ccc(OC(F)(F)F)cn4)CC3)cc2)ccn1` [Example 58, 4-{4-[(4-{[5-(trifluoromethoxy)pyridin-2-yl]amino}piperidin-1-yl)sulfonyl]phenyl}pyridine-2-carboxamide] was tested. Which pIC50 (human CCR6 [2]; scaffold variant X = O) did it give?
The pIC50 was 7.21.

Which IC50 (human CCR6 [2]) does the source give for `Cc1nnc2ccc(-c3ccc(S(=O)(=O)N4CCC(Nc5ccc(OC(F)(F)F)cn5)CC4)cc3)cn12` [Example 60, N-[1-(4-{3-methyl-[1,2,4]triazolo[4,3-a]pyridin-6-yl}benzenesulfonyl)piperidin-4-yl]-5-(trifluoromethoxy)pyridin-2-amine] here?
Its IC50 is 39.8 nM.

With `Cc1cc(-c2ccc(S(=O)(=O)N3CCC(Nc4ccc(SC(F)(F)F)cn4)CC3)cc2)cn2c(C(C)C)cnc12` [Example 61, N-(1-{4-[8-methyl-3-(propan-2-yl)imidazo[1,2-a]pyridin-6-yl]benzenesulfonyl}piperidin-4-yl)-5-[(trifluoromethyl)sulfanyl]pyridin-2-amine] as the compound, how does the IC50 (human CCR6 [2]) read?
Its IC50 is 63.1 nM.

How did the pIC50 (human CCR6 [2]; scaffold variant X = S) turn out when `O=S(=O)(c1ccc(-c2ccc3nccn3c2)cc1)N1CCC(Nc2ccc(SC(F)(F)F)cn2)CC1` [Example 62, N-[1-(4-{imidazo[1,2-a]pyridin-6-yl}benzenesulfonyl)piperidin-4-yl]-5-[(trifluoromethyl)sulfanyl]pyridin-2-amine] was run?
Its pIC50 is 7.30.

How did the IC50 (human CCR6 [2]) turn out when `CC(C)c1cnc2ccc(-c3ccc(S(=O)(=O)N4CCC(Nc5ccc(SC(F)(F)F)cn5)CC4)cc3)cn12` [Example 64, N-(1-{4-[3-(propan-2-yl)imidazo[1,2-a]pyridin-6-yl]benzenesulfonyl}piperidin-4-yl)-5-[(trifluoromethyl)sulfanyl]pyridin-2-amine] was run?
Its IC50 is 39.8 nM.

With `Cc1cc(-c2ccc(S(=O)(=O)N3CCC(Nc4cc(OC(F)(F)F)ccn4)CC3)cc2)cn2c(C(C)C)cnc12` [Example 69, N-(1-{4-[8-methyl-3-(propan-2-yl)imidazo[1,2-a]pyridin-6-yl]benzenesulfonyl}piperidin-4-yl)-4-(trifluoromethoxy)pyridin-2-amine] as the compound, how does the IC50 (human CCR6 [2]) read?
The IC50 was 1260 nM.

With `CC(C)c1nnc2ccc(-c3ccc(S(=O)(=O)N4CCC(Nc5cc(OC(F)(F)F)ccn5)CC4)cc3)cn12` [Example 70, N-(1-{4-[3-(propan-2-yl)-[1,2,4]triazolo[4,3-a]pyridin-6-yl]benzenesulfonyl}piperidin-4-yl)-4-(trifluoromethoxy)pyridin-2-amine] as the compound, how does the IC50 (human CCR6 [2]) read?
Its IC50 is 3160 nM.

With `Cc1cc(-c2ccc(S(=O)(=O)N3CCC(Nc4cc(OC(F)(F)F)ccn4)CC3)cc2)cn2c(C(C)C)nnc12` [Example 71, N-(1-{4-[8-methyl-3-(propan-2-yl)-[1,2,4]triazolo[4,3-a]pyridin-6-yl]benzenesulfonyl}piperidin-4-yl)-4-(trifluoromethoxy)pyridin-2-amine] as the compound, how does the IC50 (human CCR6 [2]) read?
The IC50 was 1000 nM.

With `O=S(=O)(c1ccc(-c2ccc3nccn3c2)cc1)[C@H]1CC[C@H](Nc2ccc(OC(F)(F)F)cn2)CC1` [Example 73, N-[trans-4-(4-{imidazo[1,2-a]pyridin-6-yl}benzenesulfonyl)cyclohexyl]-5-(trifluoromethoxy)pyridin-2-amine] as the compound, how does the IC50 (human CCR6 [2]) read?
The IC50 was 126 nM.
